We go through three molecules from ChEMBL document CHEMBL1137230, “Structure-based exploration of cyclic dipeptide chitinase inhibitors” (2004).

The subject of experiment [1] is Saccharomyces cerevisiae. Kind of experiment: Cell aggregates after incubation of compound with Saccharomyces cerevisiae strains as measure of chitinase inhibitory activity. Format: functional.
In experiment [2] the test system is Saccharomyces cerevisiae. Description: Cell aggregates after mild sonication of compound with Saccharomyces cerevisiae strains as measure of chitinase inhibitory activity. Format: functional.

For `O=C1N[C@@H](Cc2cnc[nH]2)C(=O)N2CCC[C@@H]12`, the values for the Cell aggregates in experiment [1] and in experiment [2] were 90 and 32.7, respectively.
In the case of `O=C1N[C@@H](Cc2ccc(O)cc2)C(=O)N2CCC[C@@H]12`, the Cell aggregates in experiment [1] amounted to 77.5; in experiment [2], 33.9.
The matching figures for `O=C1NCC(=O)N2CCC[C@@H]12` [CYCLO(PROLYLGLYCYL)]: 75.7 and 33.2.
